From patent publication US11053204B2, “Pyrimidinyloxy benzene derivatives as herbicides” (FMC Corporation, priority 2015, dated 2021)

What was measured:
Format in all cases: in vivo
[1] = test system: Italian ryegrass (Lolium multiflorum); assay: Test A preemergence, visual injury rating; details: Lolium multiflorum, pre-emergence, 240 h, 0 to 100 scale (0 no effect, 100 complete control), read-out: Ryegrass, Italian plant response rating
Procedure, shortened: (§1)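 Greenhouse pot test, loam/sand soil. Formulation: non-phytotoxic solvent mix plus surfactant. Pre: directed spray onto soil after sowing. Post: plants at 1–2 leaf, 2–10 cm. Rated visually vs untreated controls at ~10 d, 0 (no effect) to 100 (complete control).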

[2] = test system: giant foxtail (Setaria faberii); assay: Test A preemergence, visual injury rating; details: Setaria faberi, pre-emergence, 240 h, 0 to 100 scale (0 no effect, 100 complete control), read-out: Foxtail, Giant plant response rating
Procedure, shortened: as §1

[3] = test system: pigweed (Amaranthus retroflexus); assay: Test A preemergence, visual injury rating; details: Amaranthus retroflexus, pre-emergence, 240 h, 0 to 100 scale (0 no effect, 100 complete control), read-out: Pigweed plant response rating
Procedure, shortened: as §1

[4] = test system: ragweed (common ragweed, Ambrosia elatior); assay: Test A preemergence, visual injury rating; details: Ambrosia artemisiifolia, pre-emergence, 240 h, 0 to 100 scale (0 no effect, 100 complete control), read-out: Ragweed plant response rating
Procedure, shortened: as §1

[5] = test system: blackgrass (Alopecurus myosuroides); assay: Test C preemergence, plant response rating; details: Alopecurus myosuroides, pre-emergence, Preemergence
Procedure, shortened: (§2)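 Preemergence: seeds sown in loam–sand blend or silt loam and sprayed with test chemicals in a non-phytotoxic surfactant-containing solvent. Postemergence: potted plants at 2–18 cm (1–4-leaf stage) sprayed with the same formulation. After 13–15 d in greenhouse, visual rating versus controls on 0 (no effect) to 100 (complete control) scale.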

[6] = test system: corn (Zea mays); assay: Test C preemergence, plant response rating; details: Zea mays, pre-emergence, Preemergence
Procedure, shortened: as §2

[7] = test system: crabgrass, large (large crabgrass, Digitaria sanguinalis); assay: Test C preemergence, plant response rating; details: Digitaria sanguinalis, pre-emergence, Preemergence
Procedure, shortened: as §2

[8] = test system: foxtail, giant (giant foxtail, Setaria faberii); assay: Test C preemergence, plant response rating; details: Setaria faberi, pre-emergence, Preemergence
Procedure, shortened: as §2

[9] = test system: lambsquarters (Chenopodium album); assay: Test C preemergence, plant response rating; details: Chenopodium album, pre-emergence, Preemergence
Procedure, shortened: as §2

[10] = test system: morningglory (Ipomoea coccinea); assay: Test C preemergence, plant response rating; details: Ipomoea, pre-emergence, Preemergence
Procedure, shortened: as §2

[11] = test system: nutsedge, yellow (yellow nutsedge, Cyperus esculentus); assay: Test C preemergence, plant response rating; details: Cyperus, pre-emergence, Preemergence
Procedure, shortened: as §2

[12] = test system: oilseed rape (Brassica napus); assay: Test C preemergence, plant response rating; details: Brassica napus, pre-emergence, Preemergence
Procedure, shortened: as §2

[13] = test system: ragweed (common ragweed, Ambrosia elatior); assay: Test C preemergence, plant response rating; details: Ambrosia artemisiifolia, pre-emergence, Preemergence
Procedure, shortened: as §2

[14] = test system: ryegrass, Italian (Italian ryegrass, Lolium multiflorum); assay: Test C preemergence, plant response rating; details: Lolium multiflorum, pre-emergence, Preemergence
Procedure, shortened: as §2

[15] = test system: soybean (Glycine max); assay: Test C preemergence, plant response rating; details: Glycine max, pre-emergence, Preemergence, scale 0 to 100
Procedure, shortened: as §2

[16] = test system: velvetleaf (Abutilon theophrasti); assay: Test C preemergence, plant response rating; details: Abutilon theophrasti, pre-emergence, Preemergence
Procedure, shortened: as §2

[17] = test system: waterhemp (common waterhemp, Amaranthus rudis); assay: Test C preemergence, plant response rating; details: Amaranthus tuberculatus, pre-emergence, Preemergence
Procedure, shortened: as §2

[18] = test system: wheat (winter wheat, Triticum aestivum); assay: Test C preemergence, plant response rating; details: Triticum aestivum, pre-emergence, Preemergence
Procedure, shortened: as §2

O=C(OCCC(F)(F)F)c1c(Br)cccc1Oc1ncc(Cl)cn1 [Compound 26, 3,3,3-trifluoropropyl 2-bromo-6-[(5-chloro-2-pyrimidinyl)oxy]benzoate]
pest or weed control at 125 g/ha ([1]; 125 g ai/ha): 70%
pest or weed control at 500 g/ha ([1]; 500 g ai/ha): 100%
pest or weed control at 125 g/ha ([2]; 125 g ai/ha): 100%
pest or weed control at 500 g/ha ([2]; 500 g ai/ha): 100%
pest or weed control at 125 g/ha ([3]; 125 g ai/ha): 100%
pest or weed control at 500 g/ha ([3]; 500 g ai/ha): 100%
pest or weed control at 125 g/ha ([4]; 125 g ai/ha): 20%
pest or weed control at 500 g/ha ([4]; 500 g ai/ha): 20%
pest or weed control at 62 g/ha ([5]; 62 g ai/ha, scale of 0 to 100): 90%
pest or weed control at 125 g/ha ([5]; 125 g ai/ha, scale of 0 to 100): 90%
pest or weed control at 16 g/ha ([5]; 16 g ai/ha, scale 0 to 100): 45%
pest or weed control at 31 g/ha ([5]; 31 g ai/ha, scale 0 to 100): 90%
Corn plant response rating (crop injury, 0 = no effect, 100 = complete kill) at 62 g/ha ([6]; 62 g ai/ha, scale of 0 to 100): 25%
Corn plant response rating (crop injury, 0 = no effect, 100 = complete kill) at 125 g/ha ([6]; 125 g ai/ha, scale of 0 to 100): 40%
Corn plant response rating (crop injury, 0 = no effect, 100 = complete kill) at 16 g/ha ([6]; 16 g ai/ha, scale 0 to 100): 0%
Corn plant response rating (crop injury, 0 = no effect, 100 = complete kill) at 31 g/ha ([6]; 31 g ai/ha, scale 0 to 100): 0%
pest or weed control at 62 g/ha ([7]; 62 g ai/ha, scale of 0 to 100): 100%
pest or weed control at 125 g/ha ([7]; 125 g ai/ha, scale of 0 to 100): 100%
pest or weed control at 16 g/ha ([7]; 16 g ai/ha, scale 0 to 100): 98%
pest or weed control at 31 g/ha ([7]; 31 g ai/ha, scale 0 to 100): 100%
pest or weed control at 62 g/ha ([8]; 62 g ai/ha, scale of 0 to 100): 98%
pest or weed control at 125 g/ha ([8]; 125 g ai/ha, scale of 0 to 100): 98%
pest or weed control at 16 g/ha ([8]; 16 g ai/ha, scale 0 to 100): 95%
pest or weed control at 31 g/ha ([8]; 31 g ai/ha, scale 0 to 100): 98%
pest or weed control at 125 g/ha ([9]; 125 g ai/ha, scale of 0 to 100): 95%
pest or weed control at 16 g/ha ([9]; 16 g ai/ha, scale 0 to 100): 70%
pest or weed control at 31 g/ha ([9]; 31 g ai/ha, scale 0 to 100): 85%
pest or weed control at 62 g/ha ([9]; 62 g ai/ha, scale 0 to 100): 95%
pest or weed control at 125 g/ha ([10]; 125 g ai/ha, scale of 0 to 100): 95%
pest or weed control at 16 g/ha ([10]; 16 g ai/ha, scale 0 to 100): 20%
pest or weed control at 31 g/ha ([10]; 31 g ai/ha, scale 0 to 100): 10%
pest or weed control at 62 g/ha ([10]; 62 g ai/ha, scale 0 to 100): 85%
pest or weed control at 125 g/ha ([11]; 125 g ai/ha, scale of 0 to 100): 45%
pest or weed control at 16 g/ha ([11]; 16 g ai/ha, scale 0 to 100): 0%
pest or weed control at 31 g/ha ([11]; 31 g ai/ha, scale 0 to 100): 0%
pest or weed control at 62 g/ha ([11]; 62 g ai/ha, scale 0 to 100): 15%
plant injury at 125 g/ha ([12]; 125 g ai/ha, scale of 0 to 100): 100%
plant injury at 16 g/ha ([12]; 16 g ai/ha, scale 0 to 100): 80%
plant injury at 31 g/ha ([12]; 31 g ai/ha, scale 0 to 100): 85%
plant injury at 62 g/ha ([12]; 62 g ai/ha, scale 0 to 100): 100%
pest or weed control at 125 g/ha ([13]; 125 g ai/ha, scale of 0 to 100): 50%
pest or weed control at 16 g/ha ([13]; 16 g ai/ha, scale 0 to 100): 20%
pest or weed control at 31 g/ha ([13]; 31 g ai/ha, scale 0 to 100): 30%
pest or weed control at 62 g/ha ([13]; 62 g ai/ha, scale 0 to 100): 60%
pest or weed control at 125 g/ha ([14]; 125 g ai/ha, scale of 0 to 100): 95%
pest or weed control at 16 g/ha ([14]; 16 g ai/ha, scale 0 to 100): 35%
pest or weed control at 31 g/ha ([14]; 31 g ai/ha, scale 0 to 100): 75%
pest or weed control at 62 g/ha ([14]; 62 g ai/ha, scale 0 to 100): 85%
plant injury at 31 g/ha ([15]; 31 g ai/ha): 10%
plant injury at 62 g/ha ([15]; 62 g ai/ha): 35%
pest or weed control at 125 g/ha ([16]; 125 g ai/ha, scale of 0 to 100): 100%
pest or weed control at 16 g/ha ([16]; 16 g ai/ha, scale 0 to 100): 0%
pest or weed control at 31 g/ha ([16]; 31 g ai/ha, scale 0 to 100): 30%
pest or weed control at 62 g/ha ([16]; 62 g ai/ha, scale 0 to 100): 85%
pest or weed control at 125 g/ha ([17]; 125 g ai/ha, scale of 0 to 100): 100%
pest or weed control at 16 g/ha ([17]; 16 g ai/ha, scale 0 to 100): 100%
pest or weed control at 31 g/ha ([17]; 31 g ai/ha, scale 0 to 100): 100%
pest or weed control at 62 g/ha ([17]; 62 g ai/ha, scale 0 to 100): 100%
plant injury at 125 g/ha ([18]; 125 g ai/ha, scale of 0 to 100): 15%
plant injury at 16 g/ha ([18]; 16 g ai/ha, scale 0 to 100): 0%
plant injury at 31 g/ha ([18]; 31 g ai/ha, scale 0 to 100): 20%
plant injury at 62 g/ha ([18]; 62 g ai/ha, scale 0 to 100): 5%
